In PMC10377586 (Biomolecules, 2023):

How the values were obtained:
SH-SY5Y cells [1] = assay: Neuroprotection against H2O2-induced toxicity, LDH assay; type: cell-based; conditions: 300 µM hydrogen peroxide, compounds at 10 or 50 µM
Experimental: (§1) For neuroprotection studies, a cellular model of neuroblastoma SH-SY5Y cells exposed to hydrogen peroxide was applied. Lactate dehydrogenase (LDH) release was used as a measure of cell death. First, the compounds (11a, 11c, 12, 13, 20a, 21, and 22) were tested for their possible intrinsic neurotoxicity to the SH-SY5Y cell line (see Supplementary Figure S1). […] All other compounds were tested for cytoprotective effects against H2O2-induced toxicity in SH-SY5Y cells.
(§2) Neuroblastoma SH-SY5Y cells were seeded at the density of 20,000 cells per well to 96-well plates one day before the experiment. Twelve hours prior to start of the assay, cell culture medium was replaced with the fresh portion of reduced serum (1%) medium. Tested compounds were added to the cells at the final concentration of 10 or 50 µM in 1% DMSO. In the neuroprotection studies, hydrogen peroxide, at a final concertation of 300 µM, was pipetted to the assay plate 1 h after tested compounds addition. Cell death, represented by the release of LDH through the perforated cell membrane, was measured following 14 h incubation of cells with the compounds and hydrogen peroxide. LDH levels in cell culture medium were determined using fluorometric CytoTox-ONE Homogeneous Membrane Integrity Assay (Promega Corporation, Madison, WI, USA), according to manufacturer’s instructions.
Figure 3 The ability of tested compounds to reduce the cytotoxicity of 300 μM hydrogen peroxide (HP) on dopaminergic neuronal cells (SH-SY5Y) as judged by LDH assay. Data represent the mean of two experiments performed in triplicate. Results are presented as percent of cytotoxicity induced by 300 µM hydrogen peroxide (HP) ± SEM. NT–vehicle control (1% DMSO).

rat A2A (rA2A) ARs = molecular target: T1, rat A2A (rA2A) ARs (Rattus norvegicus, UniProt P30543); assay: Radioligand binding [3H]MSX-2, rat brain striatal membranes; conditions: read-out: rA2A [3H]MSX-2 % inhibition ± SEM at 10 µM
T1 construct: rat brain striatal membrane preparations for A2A AR assays; tissue Pel Freez; host or cells: rat brain striatum membranes
T1 sequence (P30543 whole entry): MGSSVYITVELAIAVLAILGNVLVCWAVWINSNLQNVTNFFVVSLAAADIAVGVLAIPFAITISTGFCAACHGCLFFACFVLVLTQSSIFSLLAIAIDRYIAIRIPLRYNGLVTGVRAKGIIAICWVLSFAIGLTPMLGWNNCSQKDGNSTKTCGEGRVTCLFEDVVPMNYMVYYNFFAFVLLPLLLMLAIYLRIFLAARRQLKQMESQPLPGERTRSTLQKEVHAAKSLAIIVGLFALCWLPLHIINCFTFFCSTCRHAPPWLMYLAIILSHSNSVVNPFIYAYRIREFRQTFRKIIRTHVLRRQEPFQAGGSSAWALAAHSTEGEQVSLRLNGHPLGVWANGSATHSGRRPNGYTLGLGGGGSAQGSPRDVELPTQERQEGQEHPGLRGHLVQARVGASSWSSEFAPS

rat A1 (rA1) ARs = molecular target: T2, rat A1 (rA1) ARs (Rattus norvegicus, UniProt P25099); assay: Radioligand binding [3H]CCPA, rat brain cortical membranes; conditions: read-out: rA1 [3H]CCPA % inhibition ± SEM at 10 µM
T2 construct: using rat brain cortical membrane preparations for A1; tissue Pel Freez; host or cells: rat brain cortex membranes
T2 sequence (P25099 1-326): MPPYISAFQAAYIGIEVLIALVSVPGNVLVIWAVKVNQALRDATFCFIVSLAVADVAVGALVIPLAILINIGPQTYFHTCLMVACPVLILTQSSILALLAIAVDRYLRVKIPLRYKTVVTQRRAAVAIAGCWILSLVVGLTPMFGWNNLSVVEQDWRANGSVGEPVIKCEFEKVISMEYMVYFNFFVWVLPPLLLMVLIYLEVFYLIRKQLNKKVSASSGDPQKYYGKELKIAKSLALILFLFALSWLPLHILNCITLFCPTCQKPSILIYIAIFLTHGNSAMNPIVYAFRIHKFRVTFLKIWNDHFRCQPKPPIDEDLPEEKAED

SH-SY5Y cells [2] = assay: Intrinsic neurotoxicity, LDH release from SH-SY5Y cells; type: cell-based; conditions: 50 µM
Experimental: as §1, §2
Supplementary Figure 1. […]

[3] = molecular target: human dopamine D2L receptors (Homo sapiens, UniProt P14416); assay: cAMP accumulation assay in forskolin-stimulated HEK293 cells expressing hD2R; type: cell-based
Sequence of human dopamine D2L receptors (P14416 whole entry): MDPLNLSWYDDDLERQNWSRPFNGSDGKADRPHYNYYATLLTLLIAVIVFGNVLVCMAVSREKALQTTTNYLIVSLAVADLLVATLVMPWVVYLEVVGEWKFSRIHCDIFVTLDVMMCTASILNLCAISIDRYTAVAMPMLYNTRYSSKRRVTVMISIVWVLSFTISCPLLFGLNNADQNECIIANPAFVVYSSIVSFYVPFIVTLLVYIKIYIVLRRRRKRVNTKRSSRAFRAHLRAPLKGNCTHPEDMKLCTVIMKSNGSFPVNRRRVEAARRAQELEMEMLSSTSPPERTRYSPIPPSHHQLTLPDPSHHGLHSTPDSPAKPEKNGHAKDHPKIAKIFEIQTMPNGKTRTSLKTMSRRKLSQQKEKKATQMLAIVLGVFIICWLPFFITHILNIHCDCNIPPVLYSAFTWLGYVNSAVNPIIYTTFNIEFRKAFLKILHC

inhibition at 10 µM (rat A1 (rA1) ARs) [%] | SMILES | dose dependence of cytoprotective effect (SH-SY5Y cells [1]) | cytoprotective effect against H2O2-induced toxicity (LDH release) (SH-SY5Y cells [1]) | also measured
 | CCCn1c(NCCc2ccc(O)c(O)c2)nc2c1c(=O)n(C)c(=O)n2C [Compound 11c, 8-((3,4-Dihydroxyphenethyl)amino)-1,3-dimethyl-7-propyl-3,7-dihydro-1H-purine-2,6-dione] | Dose-dependent responses |  | 
43 | CCCCCCn1c(NCCc2ccc(O)c(O)c2)nc2c1c(=O)n(C)c(=O)n2C [Compound 11i, 8-((3,4-Dihydroxyphenethyl)amino)-7-hexyl-1,3-dimethyl-3,7-dihydro-1H-purine-2,6-dione] |  |  | inhibition at 10 µM (rat A2A (rA2A) ARs): 14%
46 | Cn1c(=O)c2c(nc(NCCc3ccc(O)c(O)c3)n2CCc2ccccc2)n(C)c1=O [Compound 11k, 8-((3,4-Dihydroxyphenethyl)amino)-1,3-dimethyl-7-phenethyl-3,7-dihydro-1H-purine-2,6-dione] |  |  | inhibition at 10 µM (rat A2A (rA2A) ARs): 44%
 | CCCn1c(=O)c2c(nc(NCCc3ccc(O)c(O)c3)n2CCC)n(CCC)c1=O [Compound 12, 8-((3,4-Dihydroxyphenethyl)amino)-1,3,7-tripropyl-3,7-dihydro-1H-purine-2,6-dione] | Dose-dependent responses | most potent | 
 | CCCCn1c(=O)c2c(nc(NCCc3ccc(O)c(O)c3)n2CCC)n(CCCC)c1=O [Compound 13, 1,3-Dibutyl-8-((3,4-dihydroxyphenethyl)amino)-7-propyl-3,7-dihydro-1H-purine-2,6-dione] |  |  | intrinsic neurotoxicity to SH-SY5Y cell line (LDH release) (SH-SY5Y cells [2]): significant cytotoxicity; EC50 ([3]; forskolin-stimulated HEK293 cells, human D2L, read-out: EC50, functional cAMP assay): 11.3 µM; intrinsic activity at D2R ([3]; functional cAMP assay): agonistic properties
43 | Cn1c(=O)c2c(nc3n2CCCN3CCc2ccc(O)c(O)c2)n(C)c1=O [Compound 20a, 9-(3,4-Dihydroxyphenethyl)-1,3-dimethyl-6,7,8,9-tetrahydropyrimido[2,1-f]purine-2,4(1H,3H)-dione] |  |  | 
 | CCCn1c(=O)c2c(nc3n2CCCN3CCc2ccc(O)c(O)c2)n(CCC)c1=O [Compound 21, 9-(3,4-Dihydroxyphenethyl)-1,3-dipropyl-6,7,8,9-tetrahydropyrimido[2,1-f]purine-2,4(1H,3H)-dione] | Dose-dependent responses | most potent | 
 | CCCCn1c(=O)c2c(nc3n2CCCN3CCc2ccc(O)c(O)c2)n(CCCC)c1=O [Compound 22, 1,3-Dibutyl-9-(3,4-dihydroxyphenethyl)-6,7,8,9-tetrahydropyrimido[2,1-f]purine-2,4(1H,3H)-dione] |  | most potent | 
